Key:
Assay in all cases: relative viability vs DMSO control (72 h) (fraction); higher = more viable cells
[1] = system: SW872
Summary of the method: (§1)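 A 5 µM positive control and 0.1% DMSO vehicle ran alongside sarcoma cell lines seeded in 384-well plates to reach 80–90% confluence. Serially diluted compound, 2.5 µl from source plates of 10 mM to 0.0002 mM, was added after 24 h, and the plates were held 72 h at 37 °C, 5% CO2. Relative viability was worked out from ATPLite readings as percent growth averaged over up to triplicate wells. The values were rescaled so that 1 is full and 0 is none.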

[2] = system: KHOS-240S
Summary of the method: as §1

[3] = system: SK-LMS-1
Summary of the method: as §1

[4] = system: SW1353
Summary of the method: as §1

[5] = system: RD-ES
Summary of the method: as §1

[6] = system: HT1080
Summary of the method: as §1

[7] = system: RD
Summary of the method: as §1

[8] = system: SYO-1
Summary of the method: as §1

[9] = system: G401
Summary of the method: as §1

[10] = system: HS729
Summary of the method: as §1

[11] = system: SW684
Summary of the method: as §1

[12] = system: KHOS-NP
Summary of the method: as §1

Cc1cccc(-c2nn3c(c2-c2ccnc4ccc(C(N)=O)cc24)CCC3)n1 [Galunisertib]
Details	relative viability
[1], 0.00017 µM	1.05
[1], 0.00051 µM	1.05
[1], 0.00152 µM	1
[1], 0.00457 µM	1.02
[1], 0.01372 µM	0.989
[1], 0.04115 µM	0.991
[1], 0.1235 µM	0.956
[1], 0.3704 µM	0.96
[1], 1.111 µM	1
[1], 3.333 µM	1.01
[1], 10 µM	1
[2], 0.00017 µM	1.06
[2], 0.00051 µM	1.07
[2], 0.00152 µM	1.06
[2], 0.00457 µM	1.06
[2], 0.01372 µM	1.04
[2], 0.04115 µM	1.01
[2], 0.1235 µM	0.996
[2], 0.3704 µM	0.971
[2], 1.111 µM	0.987
[2], 3.333 µM	0.966
[2], 10 µM	0.929
[3], 0.00017 µM	1.04
[3], 0.00051 µM	1
[3], 0.00152 µM	1.01
[3], 0.00457 µM	0.982
[3], 0.01372 µM	1.01
[3], 0.04115 µM	0.982
[3], 0.1235 µM	1.01
[3], 0.3704 µM	1
[3], 1.111 µM	1
[3], 3.333 µM	0.953
[3], 10 µM	0.965
[4], 0.00017 µM	1.01
[4], 0.00051 µM	0.967
[4], 0.00152 µM	0.991
[4], 0.00457 µM	0.954
[4], 0.01372 µM	0.962
[4], 0.04115 µM	0.926
[4], 0.1235 µM	0.9202
[4], 0.3704 µM	0.959
[4], 1.111 µM	0.967
[4], 3.333 µM	1
[4], 10 µM	0.976
[5], 0.00017 µM	0.932
[5], 0.00051 µM	0.975
[5], 0.00152 µM	0.979
[5], 0.00457 µM	0.965
[5], 0.01372 µM	0.979
[5], 0.04115 µM	0.9533
[5], 0.1235 µM	0.92
[5], 0.3704 µM	0.915
[5], 1.111 µM	0.913
[5], 3.333 µM	0.886
[5], 10 µM	0.894
[6], 0.00017 µM	1.06
[6], 0.00051 µM	1.04
[6], 0.00152 µM	0.959
[6], 0.00457 µM	1.04
[6], 0.01372 µM	1.04
[6], 0.04115 µM	1.01
[6], 0.1235 µM	1.01
[6], 0.3704 µM	1.04
[6], 1.111 µM	1.04
[6], 3.333 µM	1.03
[6], 10 µM	1.02
[7], 0.00017 µM	1.06
[7], 0.00051 µM	1.07
[7], 0.00152 µM	1.079
[7], 0.00457 µM	1.095
[7], 0.01372 µM	1.081
[7], 0.04115 µM	1.09
[7], 0.1235 µM	1.071
[7], 0.3704 µM	1.05
[7], 1.111 µM	1.08
[7], 3.333 µM	1.12
[7], 10 µM	1.13
[8], 0.00017 µM	0.972
[8], 0.00051 µM	0.942
[8], 0.00152 µM	0.913
[8], 0.00457 µM	0.898
[8], 0.01372 µM	0.867
[8], 0.04115 µM	0.824
[8], 0.1235 µM	0.783
[8], 0.3704 µM	0.752
[8], 1.111 µM	0.738
[8], 3.333 µM	0.685
[8], 10 µM	0.671
[9], 0.00017 µM	0.977
[9], 0.00051 µM	0.93
[9], 0.00152 µM	1.01
[9], 0.00457 µM	0.959
[9], 0.01372 µM	0.974
[9], 0.04115 µM	0.964
[9], 0.1235 µM	0.984
[9], 0.3704 µM	0.971
[9], 1.111 µM	0.965
[9], 3.333 µM	0.9721
[9], 10 µM	0.979
[10], 0.00017 µM	0.993
[10], 0.00051 µM	0.933
[10], 0.00152 µM	0.948
[10], 0.00457 µM	0.897
[10], 0.01372 µM	0.901
[10], 0.04115 µM	0.892
[10], 0.1235 µM	0.898
[10], 0.3704 µM	0.836
[10], 1.111 µM	0.794
[10], 3.333 µM	0.756
[10], 10 µM	0.749
[11], 0.00017 µM	1.08
[11], 0.00051 µM	1.09
[11], 0.00152 µM	1.08
[11], 0.00457 µM	1.13
[11], 0.01372 µM	1.09
[11], 0.04115 µM	1.11
[11], 0.1235 µM	1.09
[11], 0.3704 µM	1.08
[11], 1.111 µM	1.05
[11], 3.333 µM	1.08
[11], 10 µM	1.09
[12], 0.00017 µM	1.088
[12], 0.00051 µM	1.09
[12], 0.00152 µM	1.066
[12], 0.00457 µM	1.06
[12], 0.01372 µM	1.06
[12], 0.04115 µM	1.07
[12], 0.1235 µM	1.03
[12], 0.3704 µM	1.04
[12], 1.111 µM	0.999
[12], 3.333 µM	0.978
[12], 10 µM	0.976

CN1CC[C@@H](NC(=O)Nc2ccc(C#N)cc2)C[C@@H]1c1nc2ccccc2[nH]1 [Glasdegib]
Details	relative viability
[1], 0.00017 µM	1.08
[1], 0.00051 µM	1.07
[1], 0.00152 µM	1.08
[1], 0.00457 µM	1.06
[1], 0.01372 µM	1.06
[1], 0.04115 µM	1.05
[1], 0.1235 µM	1.06
[1], 0.3704 µM	1.066
[1], 1.111 µM	1.05
[1], 3.333 µM	1.06
[1], 10 µM	1.06
[2], 0.00017 µM	1.04
[2], 0.00051 µM	1.061
[2], 0.00152 µM	1.08
[2], 0.00457 µM	1.08
[2], 0.01372 µM	1.06
[2], 0.04115 µM	1.06
[2], 0.1235 µM	1.05
[2], 0.3704 µM	1.065
[2], 1.111 µM	1.05
[2], 3.333 µM	1.05
[2], 10 µM	1.03
[3], 0.00017 µM	1.08
[3], 0.00051 µM	1.09
[3], 0.00152 µM	1.111
[3], 0.00457 µM	1.07
[3], 0.01372 µM	1.14
[3], 0.04115 µM	1.11
[3], 0.1235 µM	1.09
[3], 0.3704 µM	1.06
[3], 1.111 µM	1.07
[3], 3.333 µM	1.02
[3], 10 µM	1.03
[4], 0.00017 µM	1.1
[4], 0.00051 µM	1.1
[4], 0.00152 µM	1.08
[4], 0.00457 µM	1.1
[4], 0.01372 µM	1.09
[4], 0.04115 µM	1.07
[4], 0.1235 µM	1.07
[4], 0.3704 µM	1.07
[4], 1.111 µM	1.1
[4], 3.333 µM	1.09
[4], 10 µM	1.04
[5], 0.00017 µM	0.9823
[5], 0.00051 µM	0.963
[5], 0.00152 µM	0.9569
[5], 0.00457 µM	0.968
[5], 0.01372 µM	0.96
[5], 0.04115 µM	0.923
[5], 0.1235 µM	0.924
[5], 0.3704 µM	0.926
[5], 1.111 µM	0.924
[5], 3.333 µM	0.934
[5], 10 µM	0.891
[6], 0.00017 µM	1.07
[6], 0.00051 µM	1.091
[6], 0.00152 µM	1.112
[6], 0.00457 µM	1.09
[6], 0.01372 µM	1.09
[6], 0.04115 µM	1.112
[6], 0.1235 µM	1.1
[6], 0.3704 µM	1.087
[6], 1.111 µM	1.07
[6], 3.333 µM	1.054
[6], 10 µM	1.01
[7], 0.00017 µM	1.02
[7], 0.00051 µM	1.03
[7], 0.00152 µM	1.05
[7], 0.00457 µM	1.04
[7], 0.01372 µM	1.02
[7], 0.04115 µM	0.99
[7], 0.1235 µM	0.988
[7], 0.3704 µM	0.983
[7], 1.111 µM	1.02
[7], 3.333 µM	1
[7], 10 µM	1.06
[8], 0.00017 µM	1.032
[8], 0.00051 µM	1.01
[8], 0.00152 µM	1.01
[8], 0.00457 µM	0.99
[8], 0.01372 µM	0.973
[8], 0.04115 µM	0.976
[8], 0.1235 µM	0.991
[8], 0.3704 µM	1
[8], 1.111 µM	0.999
[8], 3.333 µM	0.975
[8], 10 µM	0.981
[9], 0.00017 µM	1.04
[9], 0.00051 µM	1.03
[9], 0.00152 µM	1.02
[9], 0.00457 µM	1.02
[9], 0.01372 µM	1.03
[9], 0.04115 µM	1.03
[9], 0.1235 µM	1.02
[9], 0.3704 µM	0.986
[9], 1.111 µM	0.997
[9], 3.333 µM	0.949
[9], 10 µM	0.934
[10], 0.00017 µM	1.07
[10], 0.00051 µM	1.02
[10], 0.00152 µM	1.05
[10], 0.00457 µM	0.993
[10], 0.01372 µM	1.02
[10], 0.04115 µM	1.05
[10], 0.1235 µM	1.03
[10], 0.3704 µM	0.984
[10], 1.111 µM	1.03
[10], 3.333 µM	0.993
[10], 10 µM	1.03
[11], 0.00017 µM	1.165
[11], 0.00051 µM	1.14
[11], 0.00152 µM	1.19
[11], 0.00457 µM	1.15
[11], 0.01372 µM	1.16
[11], 0.04115 µM	1.177
[11], 0.1235 µM	1.12
[11], 0.3704 µM	1.2
[11], 1.111 µM	1.12
[11], 3.333 µM	1.12
[11], 10 µM	1.12
[12], 0.00017 µM	1.09
[12], 0.00051 µM	1.1
[12], 0.00152 µM	1.1
[12], 0.00457 µM	1.11
[12], 0.01372 µM	0.779
[12], 0.04115 µM	1.1
[12], 0.1235 µM	1.108
[12], 0.3704 µM	1.12
[12], 1.111 µM	1.11
[12], 3.333 µM	1.085
[12], 10 µM	1.02
